Publication PMC11414674, “Cryo-EM structure of ACE2-SIT1 in complex with tiagabine” (The Journal of Biological Chemistry, 2024)

Assays:
SIT1 (SLC6A20) [1] = target: T1, SIT1 (SLC6A20) (Homo sapiens, UniProt Q9NP91); assay: […]proline uptake in Xenopus oocytes, inhibitor at […]; format: cell-based; parameters: with ACE2; conditions: read-out: % inhibition at 100 μM
B0AT2 (SLC6A15) = target: T2, B0AT2 (SLC6A15) (Homo sapiens, UniProt Q9H2J7); assay: labelled leucine uptake in Xenopus oocytes, tiagabine at […]; format: cell-based
T2 sequence (Q9H2J7 1-730): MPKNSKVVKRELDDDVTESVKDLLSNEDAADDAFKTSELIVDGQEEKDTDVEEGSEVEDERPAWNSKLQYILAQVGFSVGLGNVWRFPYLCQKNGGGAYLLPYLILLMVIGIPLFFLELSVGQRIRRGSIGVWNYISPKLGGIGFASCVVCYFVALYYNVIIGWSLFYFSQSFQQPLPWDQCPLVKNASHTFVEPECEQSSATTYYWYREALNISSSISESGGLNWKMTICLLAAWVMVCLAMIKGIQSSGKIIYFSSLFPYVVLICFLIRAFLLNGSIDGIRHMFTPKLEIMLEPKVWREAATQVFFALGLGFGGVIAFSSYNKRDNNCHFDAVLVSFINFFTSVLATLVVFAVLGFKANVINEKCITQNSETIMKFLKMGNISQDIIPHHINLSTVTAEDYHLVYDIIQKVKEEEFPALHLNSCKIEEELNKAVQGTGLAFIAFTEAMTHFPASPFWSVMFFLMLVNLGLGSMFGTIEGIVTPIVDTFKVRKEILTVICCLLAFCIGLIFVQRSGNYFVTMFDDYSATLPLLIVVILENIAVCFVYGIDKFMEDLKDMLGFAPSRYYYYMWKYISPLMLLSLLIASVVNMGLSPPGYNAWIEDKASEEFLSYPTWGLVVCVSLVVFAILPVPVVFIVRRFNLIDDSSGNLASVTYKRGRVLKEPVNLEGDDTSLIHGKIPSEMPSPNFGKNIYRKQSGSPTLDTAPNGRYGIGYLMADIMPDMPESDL

SIT1 (SLC6A20) [2] = target: T1, SIT1 (SLC6A20); assay: cryo-EM structure at […] Å; IC50 from […]proline uptake in Xenopus oocytes expressing SIT1-ACE2 ([…] proline); format: cell-based; parameters: full-length human SIT1, N-terminal FLAG tag, in complex with full-length ACE2; with ACE2
[3] = substrate: O=C(O)[C@@H]1CCCN1; assay: cells, lysate or membranes; conditions: Na+ and Cl- orthosteric substrate site

T1 sequence (Q9BYF1 18-805 partner, one chain of several): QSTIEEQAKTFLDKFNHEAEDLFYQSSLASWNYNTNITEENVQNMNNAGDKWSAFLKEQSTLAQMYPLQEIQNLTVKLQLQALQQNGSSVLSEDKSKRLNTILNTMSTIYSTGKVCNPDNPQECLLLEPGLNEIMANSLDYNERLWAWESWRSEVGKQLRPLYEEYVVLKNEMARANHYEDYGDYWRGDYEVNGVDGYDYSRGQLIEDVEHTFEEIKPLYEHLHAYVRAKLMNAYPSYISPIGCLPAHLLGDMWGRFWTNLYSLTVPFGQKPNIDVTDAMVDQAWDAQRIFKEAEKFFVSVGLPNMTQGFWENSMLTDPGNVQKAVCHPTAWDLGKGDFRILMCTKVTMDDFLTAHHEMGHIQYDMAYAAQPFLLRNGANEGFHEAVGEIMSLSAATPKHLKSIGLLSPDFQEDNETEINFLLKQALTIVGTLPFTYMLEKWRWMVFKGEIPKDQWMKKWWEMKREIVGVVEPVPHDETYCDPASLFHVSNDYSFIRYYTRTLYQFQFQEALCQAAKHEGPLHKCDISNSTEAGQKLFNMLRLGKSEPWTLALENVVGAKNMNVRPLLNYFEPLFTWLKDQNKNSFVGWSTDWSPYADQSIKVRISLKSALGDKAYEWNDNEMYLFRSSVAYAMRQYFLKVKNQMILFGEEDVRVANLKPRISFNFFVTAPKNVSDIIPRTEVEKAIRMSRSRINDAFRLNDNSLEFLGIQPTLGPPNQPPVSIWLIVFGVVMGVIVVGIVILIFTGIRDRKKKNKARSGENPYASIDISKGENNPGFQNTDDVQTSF

Molecule: O=C(O)C1=CCCN(CCOC(c2ccc(C(F)(F)F)cc2)c2ccc(C(F)(F)F)cc2)C1 [CI966]
- inhibition at 100 µM (SIT1 (SLC6A20) [1]): 53%

Molecule: O=C(O)C1CCCN(CCC=C(c2ccccc2)c2ccccc2)C1 (centres unmarked) [SKF89976A]
- inhibition at 100 µM (SIT1 (SLC6A20) [1]): 58%

Molecule: Cc1ccsc1C(=CCCN1CCC[C@@H](C(=O)O)C1)c1sccc1C [tiagabine]
- labelled leucine uptake in Xenopus oocytes, tiagabine at 100 μM (B0AT2 (SLC6A15)): The branched-chain amino acid transporter B^0AT2 (SLC6A15) was similarly sensitive to inhibition by Tiagabine
- IC50 (SIT1 (SLC6A20) [2]): 18 ± 4 µM

B1: SIT1 (SLC6A20) (Homo sapiens) (protein)
chain: MEKARPLWANSLQFVFACISYAVGLGNVWRFPYLCQMYGGGSFLVPYIIMLIVEGMPLLYLELAVGQRMRQGSIGAWRTISPYLSGVGVASVVVSFFLSMYYNVINAWAFWYLFHSFQDPLPWSVCPLNGNHTGYDEECEKASSTQYFWYRKTLNISPSLQENGGVQWEPALCLLLAWLVVYLCILRGTESTGKVVYFTASLPYCVLIIYLIRGLTLHGATNGLMYMFTPKIEQLANPKAWINAATQIFFSLGLGFGSLIAFASYNEPSNNCQKHAIIVSLINSFTSIFASIVTFSIYGFKATFNYENCLKKVSLLLTNTFDLEDGFLTASNLEQVKGYLASAYPSKYSEMFPQIKNCSLESELDTAVQGTGLAFIVYTEAIKNMEVSQLWSVLYFFMLLMLGIGSMLGNTAAILTPLTDSKIISSHLPKEAISGLVCLVNCAIGMVFTMEAGNYWFDIFNDYAATLSLLLIVLVETIAVCYVYGLRRFESDLKAMTGRAVSWYWKVMWAGVSPLLIVSLFVFYLSDYILTGTLKYQAWDASQGQLVTKDYPAYALAVIGLLVASSTMCIPLAALGTFVQRRLKRGDADPVA
- Km [3]: 130 µM
